From PubChem BioAssay AID244 (DTP/NCI, 2004)
“And” between values parts separate entries of the source, which are not always exact repeats. Identical values can stand only once. Results filed as inconclusive are left out.

Tested on: CD2F1 mice, Lymphoma 8 ip, survival T/C
Test: NCI In Vivo Anticancer Drug Screen. Data for tumor model Lymphoma 8 (intraperitoneal) in CD2F1 (CDF1) mice
Conditions: higher = longer survival
Description: The antitumor activity of compounds was measured in mice bearing transplantable tumors. Survival or tumor size were measured and the results are expressed as the measurement made in the treated group (T) divided by the measurement made in the vehicle treated control group (C). The tumor model used in this assay is Lymphoma 8 (intraperitoneal) in CD2F1 (CDF1) mice

[1] = endpoint: survival time, mean or median, dose: 8.0 mg/kg/injection, schedule: Q01DX010 (ip), vehicle: saline
[2] = endpoint: survival time, mean or median, dose: 16.0 mg/kg/injection, schedule: Q01DX010 (ip), vehicle: saline
[3] = endpoint: median survival time, dose: 50.0 mg/kg/injection, schedule: Q01DX005 (ip), vehicle: saline
[4] = endpoint: median survival time, dose: 100.0 mg/kg/injection, schedule: Q01DX005 (ip), vehicle: saline
[5] = endpoint: median survival time, dose: 200.0 mg/kg/injection, schedule: Q01DX005 (ip), vehicle: saline
[6] = endpoint: median survival time, dose: 400.0 mg/kg/injection, schedule: Q01DX005 (ip), vehicle: saline
[7] = endpoint: median survival time, dose: 12.5 mg/kg/injection, schedule: Q01DX005 (ip), vehicle: saline
[8] = endpoint: median survival time, dose: 25.0 mg/kg/injection, schedule: Q01DX005 (ip), vehicle: saline
[9] = endpoint: median survival time, dose: 12.5 mg/kg/injection, schedule: Q01DX001 (ip), vehicle: saline
[10] = endpoint: median survival time, dose: 25.0 mg/kg/injection, schedule: Q01DX001 (ip), vehicle: saline

`O=C1NC(O)CCN1C1OC(CO)C(O)C1O` (stereo not drawn) was tested, and the T/C (endpoint: median survival time, dose: 10.0 mg/kg/injection, schedule: Q01DX015 (ip), vehicle: saline) was 102 % of control and 109 % of control, the T/C (endpoint: median survival time, dose: 10.0 mg/kg/injection, schedule: Q04DX008 (ip), vehicle: saline) was 100 % of control and 101 % of control and the T/C (endpoint: median survival time, dose: 10.0 mg/kg/injection, schedule: Q## X015 (ip), vehicle: saline) was 102 % of control and 109 % of control. For the same compound, the T/C (endpoint: median survival time, dose: 30.0 mg/kg/injection, schedule: Q01DX015 (ip), vehicle: saline) was 102 % of control and 112 % of control, the T/C (endpoint: median survival time, dose: 30.0 mg/kg/injection, schedule: Q04DX008 (ip), vehicle: saline) was 101 % of control (2×) and 103 % of control and the T/C (endpoint: median survival time, dose: 30.0 mg/kg/injection, schedule: Q## X015 (ip), vehicle: saline) was 102 % of control and 112 % of control. The T/C (endpoint: median survival time, dose: 100.0 mg/kg/injection, schedule: Q01DX015 (ip), vehicle: saline) was 102 % of control and 104 % of control, the T/C (endpoint: median survival time, dose: 100.0 mg/kg/injection, schedule: Q04DX008 (ip), vehicle: saline) was 101 % of control (2×) and 103 % of control and the T/C (endpoint: median survival time, dose: 100.0 mg/kg/injection, schedule: Q## X015 (ip), vehicle: saline) was 102 % of control and 104 % of control. For the same compound, the T/C (endpoint: median survival time, dose: 300.0 mg/kg/injection, schedule: Q01DX015 (ip), vehicle: saline) was 99 % of control and 101 % of control, the T/C (endpoint: median survival time, dose: 300.0 mg/kg/injection, schedule: Q04DX008 (ip), vehicle: saline) was 99 % of control and 102 % of control and the T/C (endpoint: median survival time, dose: 300.0 mg/kg/injection, schedule: Q## X015 (ip), vehicle: saline) was 99 % of control and 101 % of control. For the same compound, the T/C (endpoint: median survival time, dose: 1000.0 mg/kg/injection, schedule: Q01DX015 (ip), vehicle: saline) was 101 % of control, the T/C (endpoint: median survival time, dose: 1000.0 mg/kg/injection, schedule: Q04DX008 (ip), vehicle: saline) was 99 % of control and 105 % of control and the T/C (endpoint: median survival time, dose: 1000.0 mg/kg/injection, schedule: Q## X015 (ip), vehicle: saline) was 101 % of control.

In the case of `Nc1nc(=S)c2ncn(C3OC(CO)C(O)C3O)c2[nH]1` (stereo not drawn), the T/C (endpoint: survival time, mean or median, dose: 4.0 mg/kg/injection, schedule: Q01DX010 (ip), vehicle: saline) is reported as 150 % of control, the T/C [1] is reported as 118 % of control and the T/C [2] is reported as 86 % of control.

In the case of `N=[N+]=CC(=O)OCC(N)C(=O)O` (stereo not drawn), the T/C (endpoint: median survival time, dose: 2.0 mg/kg/injection, schedule: Q14DX016 (ip), vehicle: saline) is reported as 150 % of control.

For `NC(=O)OCC(N)C(=O)O` (stereo not drawn), the T/C [3] was 99 % of control and 100 % of control, the T/C [4] was 100 % of control and the T/C [5] was 88 % of control. The T/C [6] was 92 % of control and 94 % of control.

For `CN(C)C(=O)/N=N/C(=O)N(C)C`, the T/C [7] was 95 % of control and 96 % of control and 98 % of control, the T/C [8] was 90 % of control and 92 % of control and 96 % of control and the T/C [3] was 90 % of control and 91 % of control and 104 % of control. The T/C [4] was 88 % of control and 90 % of control (2×).

With `NC(CC(=O)CCl)C(=O)O` (stereo not drawn) the T/C (endpoint: median survival time, dose: 1.6 mg/kg/injection, schedule: Q01DX005 (ip), vehicle: saline) was 100 % of control, the T/C (endpoint: median survival time, dose: 3.13 mg/kg/injection, schedule: Q01DX005 (ip), vehicle: saline) was 92 % of control and 96 % of control and 108 % of control and the T/C (endpoint: median survival time, dose: 6.25 mg/kg/injection, schedule: Q01DX005 (ip), vehicle: saline) was 100 % of control and 103 % of control and 108 % of control. The T/C [9] was 100 % of control, the T/C [7] was 100 % of control and 103 % of control and 107 % of control and the T/C [10] was 100 % of control. For the same compound, the T/C [8] was 111 % of control and 114 % of control and 120 % of control, the T/C (endpoint: median survival time, dose: 50.0 mg/kg/injection, schedule: Q01DX001 (ip), vehicle: saline) was 108 % of control and the T/C [3] was 37 % of control. For the same compound, the T/C (endpoint: median survival time, dose: 100.0 mg/kg/injection, schedule: Q01DX001 (ip), vehicle: saline) was 91 % of control.

`NC(=O)c1[nH]nc(C2OC(CO)C(O)C2O)c1O` (stereo not drawn) was tested, and the T/C (endpoint: median survival time, dose: 2.0 mg/kg/injection, schedule: Q04DX003 (ip), vehicle: saline) was 103 % of control, the T/C (endpoint: median survival time, dose: 4.0 mg/kg/injection, schedule: Q04DX003 (ip), vehicle: saline) was 91 % of control and the T/C (endpoint: median survival time, dose: 8.0 mg/kg/injection, schedule: Q04DX003 (ip), vehicle: saline) was 123 % of control. The T/C (endpoint: median survival time, dose: 16.0 mg/kg/injection, schedule: Q04DX003 (ip), vehicle: saline) was 75 % of control and the T/C (endpoint: median survival time, dose: 32.0 mg/kg/injection, schedule: Q04DX003 (ip), vehicle: saline) was 53 % of control.

With `N[C@H](C(=O)O)[C@@H]1CC(Cl)=NO1` the T/C (endpoint: median survival time, dose: 0.38 mg/kg/injection, schedule: Q01DX009 (ip), vehicle: saline) was 105 % of control, the T/C (endpoint: median survival time, dose: 0.75 mg/kg/injection, schedule: Q01DX009 (ip), vehicle: saline) was 115 % of control and the T/C (endpoint: median survival time, dose: 1.5 mg/kg/injection, schedule: Q01DX009 (ip), vehicle: saline) was 118 % of control.

For `O=c1[nH]cc(F)c(=O)[nH]1`, the T/C (endpoint: median survival time, dose: 13.0 mg/kg/injection, schedule: Q04DX003 (ip), vehicle: saline) was 110 % of control, the T/C (endpoint: median survival time, dose: 21.8 mg/kg/injection, schedule: Q04DX003 (ip), vehicle: saline) was 118 % of control and the T/C (endpoint: median survival time, dose: 36.0 mg/kg/injection, schedule: Q04DX003 (ip), vehicle: saline) was 114 % of control. For the same compound, the T/C (endpoint: median survival time, dose: 100.0 mg/kg/injection, schedule: Q04DX003 (ip), vehicle: saline) was 62 % of control.

With `c1ccc(CNc2ncnc3[nH]ncc23)cc1` the T/C [1] was 100 % of control, the T/C [2] was 95 % of control and the T/C (endpoint: survival time, mean or median, dose: 32.0 mg/kg/injection, schedule: Q01DX010 (ip), vehicle: saline) was 95 % of control and 100 % of control. For the same compound, the T/C (endpoint: survival time, mean or median, dose: 64.0 mg/kg/injection, schedule: Q01DX010 (ip), vehicle: saline) was 90 % of control.

For `NC(CC(=O)NO)C(=O)O` (stereo not drawn), the T/C (endpoint: median survival time, dose: 100.0 mg/kg/injection, schedule: Q01DX005 (ip), vehicle: water) was 100 % of control, the T/C (endpoint: median survival time, dose: 200.0 mg/kg/injection, schedule: Q01DX005 (ip), vehicle: water) was 108 % of control and the T/C (endpoint: median survival time, dose: 400.0 mg/kg/injection, schedule: Q01DX005 (ip), vehicle: water) was 108 % of control.

In the case of `NCCC(N)=O`, the T/C [3] is reported as 92 % of control and 94 % of control, the T/C [4] is reported as 92 % of control and 94 % of control and the T/C [5] is reported as 92 % of control and 94 % of control. The T/C [6] was 92 % of control and 94 % of control.

For `CN(Cc1cnc2nc(N)nc(N)c2n1)c1ccc(C(=O)N[C@@H](CCC(=O)O)C(=O)O)cc1`, the T/C (endpoint: median survival time, dose: 0.75 mg/kg/injection, schedule: Q01DX005 (ip), vehicle: saline) was 188 % of control and 195 % of control, the T/C (endpoint: median survival time, dose: 1.5 mg/kg/injection, schedule: Q01DX005 (ip), vehicle: saline) was 161 % of control and 172 % of control and the T/C (endpoint: median survival time, dose: 3.0 mg/kg/injection, schedule: Q01DX005 (ip), vehicle: saline) was 53 % of control.

`O=NN(CCCl)C(=O)NCCCl` was tested, and the T/C [9] was 153 % of control, the T/C [7] was 157 % of control and the T/C [10] was 261 % of control. For the same compound, the T/C [8] was 265 % of control, the T/C [3] was 69 % of control and the T/C (endpoint: survival time, mean or median, dose: 6.25 mg/kg/injection, schedule: Q01DX010 (ip), vehicle: saline) was 160 % of control and 165 % of control. For the same compound, the T/C (endpoint: survival time, mean or median, dose: 12.5 mg/kg/injection, schedule: Q01DX010 (ip), vehicle: saline) was 120 % of control and the T/C (endpoint: survival time, mean or median, dose: 25.0 mg/kg/injection, schedule: Q01DX010 (ip), vehicle: saline) was 90 % of control.

`S=c1nc[nH]c2nc[nH]c12` was tested, and the T/C (endpoint: median survival time, dose: 60.0 mg/kg/injection, schedule: Q01DX002 (ip), vehicle: saline) was 96 % of control, the T/C (endpoint: median survival time, dose: 60.0 mg/kg/injection, schedule: Q04DX002 (ip), vehicle: saline) was 107 % of control and the T/C (endpoint: median survival time, dose: 90.0 mg/kg/injection, schedule: Q01DX002 (ip), vehicle: saline) was 93 % of control. For the same compound, the T/C (endpoint: median survival time, dose: 90.0 mg/kg/injection, schedule: Q04DX002 (ip), vehicle: saline) was 107 % of control and the T/C (endpoint: median survival time, dose: 135.0 mg/kg/injection, schedule: Q01DX002 (ip), vehicle: saline) was 103 % of control.

`NC(=O)C(F)(F)C(N)C(=O)O` (stereo not drawn) was tested, and the T/C (endpoint: median survival time, dose: 50.0 mg/kg/injection, schedule: Q01DX009 (ip), vehicle: saline) was 88 % of control and the T/C (endpoint: median survival time, dose: 100.0 mg/kg/injection, schedule: Q01DX009 (ip), vehicle: saline) was 88 % of control.
